Values joined by “and” are separate entries in the source; they are usually repeats but may differ in a detail not shown here. Equal values may be shown once. “Also recorded” adds a separate entry of the source.
How the values were obtained:
[1] = Two-photon ratiometric pH measurement of secretory vesicles (LDCVs) in PC-12 cells
VMAT2 = molecular target: T1, VMAT2 (Rattus norvegicus, UniProt Q01827); experiment: Fluorescent microscopy probe uptake assay in VMAT2/HEK cells; assay type: cell-based; conditions: 20 μM probe; for Uptake pattern in screening with VMAT2/HEK and HEK cells: 30 min, VMAT2/HEK vs HEK cells, with or without 1 μM TBZ or reserpine; for Probe uptake in VMAT2-HEK cells: 30 min incubation
T1 construct: host or cells: HEK GnTI- (nonglycosylating) cells stably expressing VMAT2
T1 sequence (Q01827 whole entry): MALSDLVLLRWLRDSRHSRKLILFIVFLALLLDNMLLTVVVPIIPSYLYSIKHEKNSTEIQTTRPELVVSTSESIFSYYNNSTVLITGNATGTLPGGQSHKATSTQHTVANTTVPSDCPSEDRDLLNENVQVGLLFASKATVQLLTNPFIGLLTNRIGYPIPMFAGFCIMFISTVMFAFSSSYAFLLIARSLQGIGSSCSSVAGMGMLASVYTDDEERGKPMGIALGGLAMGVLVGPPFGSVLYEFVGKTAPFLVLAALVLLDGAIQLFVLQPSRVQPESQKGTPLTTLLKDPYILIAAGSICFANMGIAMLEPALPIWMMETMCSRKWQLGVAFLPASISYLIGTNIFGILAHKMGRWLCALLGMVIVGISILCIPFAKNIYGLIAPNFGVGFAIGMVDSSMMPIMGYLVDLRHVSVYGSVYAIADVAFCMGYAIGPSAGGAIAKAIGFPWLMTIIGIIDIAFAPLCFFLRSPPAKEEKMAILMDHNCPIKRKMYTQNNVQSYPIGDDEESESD
Description: HEK GNTI^− (nonglycosylating) cell line stably expressing VMAT2 (VMAT2-HEK) and HEK GNU^− cell line stably transected with TetR (HEK) to serve as a control were kindly provided by the laboratory of Robert Edwards at UCSF. Cells were grown in DMEM+Glutamax (Invitrogen #10569) with 10% fetal bovine serum (FBS) (Atlanta Biologicals), 100 U/ml penicillin (Nitrogen), and 100 μg/ml streptomycin (Invitrogen). […] The medium was removed by aspiration, and the cells were washed with PBS (2 mL per well). […] Then, the probe uptake was initiated by adding 0.1 mL of experimental media containing probe (220 μM, prepared from 10 mM stock solution in DMSO, final conc.=20 μM in the uptake assay). After incubating at 37° C. for 30 minutes, the media was removed by aspiration, and the cells were washed with PBS (2 mL per well) and treated with probe-free experimental media. Fluorescence images were taken by using Leica FW 4000 equipped with Chroma custom filter cube (ex=350/50 nm, em=460/50 nm) and Hamamatsu digital camera C4742-95. The fluorescent images and bright field images were acquired for 2000 ms and 37 ms, respectively. All images were adjusted using the same contrast and brightness level using Images J (National Institute of Health).

HEK cells = experiment: Fluorescent microscopy probe uptake in control (non-transfected) HEK cells; assay type: cell-based, human; conditions: 20 μM probe, 30 min incubation
Description: HEK GNTI^− (nonglycosylating) cell line stably expressing VMAT2 (VMAT2-HEK) and HEK GNU^− cell line stably transected with TetR (HEK) to serve as a control were kindly provided by the laboratory of Robert Edwards at UCSF. Cells were grown in DMEM+Glutamax (Invitrogen #10569) with 10% fetal bovine serum (FBS) (Atlanta Biologicals), 100 U/ml penicillin (Nitrogen), and 100 μg/ml streptomycin (Invitrogen). […] After 5 days, the cells looked fibroblastic and had reached ˜70% confluence. The medium was removed by aspiration, and the cells were washed with PBS (2 mL per well). […] Then, the probe uptake was initiated by adding 0.1 mL of experimental media containing probe (220 μM, prepared from 10 mM stock solution in DMSO, final conc.=20 μM in the uptake assay). After incubating at 37° C. for 30 minutes, the media was removed by aspiration, and the cells were washed with PBS (2 mL per well) and treated with probe-free experimental media. Fluorescence images were taken by using Leica FW 4000 equipped with Chroma custom filter cube (ex=350/50 nm, em=460/50 nm) and Hamamatsu digital camera C4742-95. The fluorescent images and bright field images were acquired for 2000 ms and 37 ms, respectively. All images were adjusted using the same contrast and brightness level using Images J (National Institute of Health).

VMAT1 = molecular target: T2, VMAT1 (Rattus norvegicus, UniProt Q01818); experiment: Fluorescent microscopy uptake of Mini202 in PC-12 cells; assay type: cell-based
T2 construct: PC-12 cells express mostly VMAT1 on their secretory large dense core vesicles (LDCVs); host or cells: PC-12 cells
T2 sequence (Q01818 1-521): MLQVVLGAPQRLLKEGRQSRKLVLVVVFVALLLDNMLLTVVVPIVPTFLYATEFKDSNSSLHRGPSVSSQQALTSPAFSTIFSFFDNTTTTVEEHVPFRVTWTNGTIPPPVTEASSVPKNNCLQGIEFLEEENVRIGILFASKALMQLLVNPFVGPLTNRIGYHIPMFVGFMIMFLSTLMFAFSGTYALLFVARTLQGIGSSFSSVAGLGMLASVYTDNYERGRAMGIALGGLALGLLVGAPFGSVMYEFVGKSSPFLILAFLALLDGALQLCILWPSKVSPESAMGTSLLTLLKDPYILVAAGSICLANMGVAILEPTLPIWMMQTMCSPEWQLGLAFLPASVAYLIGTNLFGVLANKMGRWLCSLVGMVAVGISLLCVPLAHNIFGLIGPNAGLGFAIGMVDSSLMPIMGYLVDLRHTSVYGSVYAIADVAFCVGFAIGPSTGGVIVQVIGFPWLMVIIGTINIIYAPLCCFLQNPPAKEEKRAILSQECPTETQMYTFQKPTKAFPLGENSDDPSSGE
Description: PC-12 cells were purchased and maintained according to the protocols provided by American Type Culture Collection (ATCC, CRL-1721). Among the two variations of PC-12 provided by ATCC, the one displaying loosely adherent (with no PDL coating) and multicell-aggregating phenotype was used. PC-12 cells were grown in RPMI-1640 (Invitrogen, #11875) with 10% horse serum (Invitrogen, #16050-114), 5% fetal bovine serum (FBS) (Atlanta Biologicals), 100 U/ml penicillin (Invitrogen), and 100 μg/ml streptomycin (Invitrogen). […] After 6 days when the cells get ˜70% confluent, the medium was removed by aspiration, and the cells were washed with PBS (2 mL per well). […] Then, the probe uptake was initiated by adding 0.1 mL of experimental media containing Mini202 (220 μM, prepared from 10 mM stock solution in DMSO, final conc.=20 μM in the uptake assay) to the cells. After incubating the cells at 37° C. for 1 hour, the medium was removed by aspiration, and cells were washed with PBS (2 mL per well) and treated with dye-free experimental media. Fluorescence images were taken by using Leica FW 4000 equipped with Chroma custom filter cube (ex=350/50 nm, em=460/50 nm) and Hamamatsu digital camera C4742-95. The fluorescent images and bright field images were acquired for 2000 ms and 37 ms, respectively. […]

[2] = log D by shake flask method (n-octanol / PBS pH 7.4); assay type: physicochemical
Description: The log D values were determined by traditional shake flask method. Each measurement was performed in duplicate as follows. First, 20 μM probe solution in 1 mL PBS (pH 7.4) was prepared to which 1 mL of n-octanol was added and mixed thoroughly. The mixture was kept in dark for 3 days for complete equilibrium, and the concentrations of probe in each layer were determined based on the UV absorbance. Log D values were determined based on the equation; log D=log [probe]oct−log [probe]PBS, where [probe]oct and [probe]PBS are the concentrations of the probe in n-octanol and PBS, respectively.

[3] = Photostability of probe in fluorescence microscopy
[4] = pKa from absorption spectra in PBS at different pH; assay type: physicochemical; conditions: from absorbance at λabs,max versus pH of PBS
Description: UV absorption spectra were taken by adding probe (2 μL of 10 mM stock solution in DMSO) to 998 μL of PBS buffer at different pH values (final probe conc.=20 μM) in quartz cuvette.
The pKa values of probes were determined from the absorption spectra.

VMAT2-HEK cells = experiment: Chloroquine-induced Mini202 redistribution in VMAT2-HEK cells; assay type: cell-based, human; conditions: chloroquine 300 μM, 3 min, VMAT2-HEK cells labeled with Mini202
Description: For the chloroquine-induced Mini202 redistribution experiment, after probe loading and cell washing with PBS, 1 mL of experimental media containing 300 μM chloroquine was added to the cells at RT for 3 minutes, after which time fluorescent images were taken by the same procedure described above.

LDCVs in PC-12 cells = experiment: Two-photon ratiometric pH measurement of secretory vesicles (LDCVs) in PC-12 cells; conditions: PC-12 cells loaded with Mini202, 100 μM methamphetamine, 5 minutes, RT
[5] = n-octanol / PBS pH 7.4, 20 μM probe
[6] = PBS buffer at different pH values, read-out: pKa
[7] = n-octanol/PBS, pH 7.4, n-octanol / PBS pH 7.4, 20 μM probe

Compound	Uptake pattern in screening with VMAT2/HEK and HEK cells (VMAT2)	pKa [4, 6]	logD at 3 days [2, 7]	logD at 3 days [2, 5]	further results
NCCc1cc2cc(Cl)c(O)cc2oc1=O [Mini202]	VMAT2 substrates	6.1	–	–	pKa [1]: 5.93 ± 0.04; Probe uptake in VMAT2-HEK cells (VMAT2): highest uptake; also recorded: punctuate fluorescence patterns; Probe uptake in VMAT2-HEK cells (VMAT2; listed as Mini202.TFA): punctuate uptake in a VMAT2-dependent manner; also recorded: fluorescent puncta; Probe uptake in non-transfected HEK cells (HEK cells): No uptake; Probe uptake in non-transfected HEK cells (HEK cells; listed as Mini202.TFA): no uptake; Mini202 uptake / labeling in PC-12 cells (VMAT1; 20 μM, 1 h): fluorescent puncta; also recorded: VMAT1 substrate; LogD (at pH 7.4) [2, 5]: −1.5 and −1.42; Photostability [3]: photostable; pKa [4]: 6.06
CCN(CC)CCCC(C)Nc1ccnc2cc(Cl)ccc12 (centres unmarked) [chloroquine]	–	–	–	–	Redistribution of Mini202 from acidic vesicles (VMAT2-HEK cells): diffusion of the punctuate fluorescent pattern; also recorded: redistribution of Mini202 from the acidic vesicles to cytosol
CC(C)(C)c1cc2c(CCN)cc(=O)oc2cc1O [Mini104]	non-selective uptake	7.94	0.89	–	–
COC(=O)[C@H]1[C@H]2C[C@@H]3c4[nH]c5cc(OC)ccc5c4CCN3C[C@H]2C[C@@H](OC(=O)c2cc(OC)c(OC)c(OC)c2)[C@@H]1OC [reserpine, reference compound]	–	–	–	–	Effect of VMAT1 inhibitor on Mini202 uptake in PC-12 cells (VMAT1; reserpine 1 μM, 1 h pre-incubation, then 20 μM Mini202 1 h): no detectable labeling; also recorded: completely inhibited
NCCC(=O)c1cc2cc(Cl)c(O)cc2oc1=O [Mini302]	no uptake in either cell lines	4.68	–	0.24	–
CN[C@@H](C)Cc1ccccc1 [methamphetamine]	–	–	–	–	emission ratio (I760/I692) after drug exposure (LDCVs in PC-12 cells): 1.19; vesicular pH in PC-12 cells after drug exposure (LDCVs in PC-12 cells): 6.36 and 6.4
NCCc1cc(=O)oc2cc(O)c(Cl)cc12 [Mini102]	–	5.8	-1.45	–	pKa [4]: 5.77
CC(C)(C)CC(C)(C)c1cc2c(CCN)cc(=O)oc2cc1O [Mini105]	non-selective uptake	8.49	–	1.3	–
NCCc1cc2ccc(O)cc2oc1=O [Mini201]	VMAT2 substrates	7.6	-1.01	–	–
NCCc1cc2c(ccc3ccc(O)cc32)oc1=O [Mini401]	non-selective uptake	9.36	–	0.86	–
NCCc1cc(=O)oc2c(Cc3ccccc3)c(O)c(F)cc12 [Mini106]	VMAT2 substrates	6.09	–	0.18	–
NCCc1cc(=O)oc2cc(O)c(F)cc12 [Mini103]	–	5.95	-1.98	–	–
NCCc1cc(=O)oc2cc(O)ccc12 [Mini101]	–	7.2	-0.94	–	pKa [4]: 7.24
NCCC(=O)c1cc2ccc(O)cc2oc1=O [Mini301]	no uptake in either cell lines	7	–	0.14	–

From patent publication US9075014B2, “pH-responsive fluorescent false neurotransmitters and their use” (THE TRUSTEES OF COLUMBIA UNIVERSITY IN THE CITY OF NEW YORK, priority 2011, dated 2015)
